Test results as given in patent publication US4038308A, “Prostaglandin derivatives” (American Home Products Corporation, priority 1976, dated 1977).

Key:
[1] = system: bronchoconstricting effects of a standard dose of acetylcholine; test: Bronchodilation upon aerosol inhalation in the guinea pig: inhibition of acetylcholine bronchoconstriction (method of Rosenthale et al.); type: in vivo; conditions: acetylcholine i.v. dose producing ca. 30% bronchoconstriction
Text: In using the compounds of the invention to produce bronchodilating effects in warm-blooded animals, they may be administered in a variety of dosage forms: oral, injectable, and aerosol inhalation. Aerosol inhalation is a preferred method because of its rapid onset of action, great potency, and specificity of action. The particular dosage to obtain the bronchodilating effect will vary with the particular compound employed, the particular animal involved, and the degree of bronchodilation desired. In the guinea pig, by aerosol inhalation, the dose to produce bronchodilation is from about 0.15 micrograms to about 25 micrograms, and preferably from about 0.15 to about 15 micrograms. The bronchodilation produced upon aerosol inhalation can be observed by the method of Rosenthale et al., J. Pharmacol. Exp. Ther., 178, 541 (1971). Using this procedure the following results were obtained:
*The dose (i.v.) of acetylcholine which produces a ca. 30%

[2] = Hypotensive effect (blood pressure change) in the anesthetized dog, intravenous route; type: in vivo; conditions: dose 100 μg/kg., average of two animals
Procedure: In the use of the compounds of the invention to produce hypotensive effects in warm-blooded animals, administration by the injectable route is preferred, preferably the intravenous route.
Thus in the anesthetized dog by the intravenous route the dose to produce hypotension is from about 1 μg/kg. to about 200 μg/kg. and preferably from about 10 μg/kg. to about 100 μg/kg. Using this procedure the following results were obtained.

C#CC1CC(=O)[C@H](C/C=C\CCCC(=O)O)[C@H]1/C=C/[C@H](O)CCCCC (stereo partly drawn) [7-([3RS]-3-Ethynyl-2β-[(3R)-3-Hydroxy-Trans-1-Octenyl]-5-Oxo-1β-Cyclopentyl)-Cis-5-Heptenoic Acid]
Percent Inhibition of the bronchoconstricting effects of a standard dose of acetylcholine ([1]; dose 1.50 μg): 43% | Percent Inhibition of the bronchoconstricting effects of a standard dose of acetylcholine ([1]; dose 15 μg): 68%

C#C[C@@H]1CC(=O)[C@H](CCCCCCC(=O)O)[C@H]1/C=C/[C@@H](O)CCCCC [3α-Ethynyl-2β-[(3S)-3-Hydroxy-Trans-1-Octenyl]-5-Oxo-1α-Cyclopentaneheptanoic Acid]
Percent Inhibition of the bronchoconstricting effects of a standard dose of acetylcholine ([1]; dose 0.15 μg): 52% | Percent Inhibition of the bronchoconstricting effects of a standard dose of acetylcholine ([1]; dose 1.50 μg): 58% | Percent Inhibition of the bronchoconstricting effects of a standard dose of acetylcholine ([1]; dose 15 μg): 76% | Percent Inhibition of the bronchoconstricting effects of a standard dose of acetylcholine ([1]; dose .015 μg): 28%

C#CC1CC(=O)[C@H](C/C=C\CCCC(=O)O)[C@H]1/C=C/[C@@H](O)CCCCC (stereo partly drawn) [7-([3RS]-3-Ethynyl-2β-[(3S)-3-Hydroxy-Trans-1-Octenyl]-5-Oxo-1α-Cyclopentyl)-Cis-5-Heptenoic Acid]
Δ B.P. [2]: -31 mm. mg

C#CC1CC(=O)[C@H](CCCCCCC(=O)O)[C@H]1/C=C/C(C)(O)CCCCC (stereo partly drawn) [(3RS)-3-Ethynyl-2β[(3RS)-3-Hydroxy-3-Methyl-Trans-1-Octenyl]-5-Oxo-1α-cyclopentane-Heptanoic Acid]
Percent Inhibition of the bronchoconstricting effects of a standard dose of acetylcholine ([1]; dose 0.15 μg): 54% | Percent Inhibition of the bronchoconstricting effects of a standard dose of acetylcholine ([1]; dose 1.50 μg): 56% | Percent Inhibition of the bronchoconstricting effects of a standard dose of acetylcholine ([1]; dose 15 μg): 37% | Δ B.P. [2]: -16 mm. mg

C#CC1CC(=O)[C@H](C/C=C\CCCC(=O)O)[C@H]1/C=C/C(O)(C#C)CCCCC (stereo partly drawn) [7-[(3RS)-3-Ethynyl-2β-[(3RS)-3-Ethynyl-3-Hydroxy-Trans-1-Octenyl]-5-Oxo-1α-Cyclopentyl]-Cis-5-Heptenoic Acid]
Percent Inhibition of the bronchoconstricting effects of a standard dose of acetylcholine ([1]; dose 0.15 μg): 56% | Percent Inhibition of the bronchoconstricting effects of a standard dose of acetylcholine ([1]; dose 1.50 μg): 86% | Percent Inhibition of the bronchoconstricting effects of a standard dose of acetylcholine ([1]; dose .015 μg): 42% | Δ B.P. [2]: -41 mm. mg

C#CC1CC(=O)[C@H](CCCCCCC(=O)O)[C@H]1/C=C/C(=O)CCCCC (stereo partly drawn) [(3RS)-3-Ethynyl-5-Oxo-2β-(3-Oxo-Trans-1-Octenyl)-1α-Cyclopentaneheptanoic Acid]
Percent Inhibition of the bronchoconstricting effects of a standard dose of acetylcholine ([1]; dose 1.50 μg): 36% | Percent Inhibition of the bronchoconstricting effects of a standard dose of acetylcholine ([1]; dose 15 μg): 75%
